Laboratory results reported in BigSolDB 2.1.

N=C(N)NC(N)=S
solubility (mole fraction)
Conditions | 283.15 K | 288.15 K | 293.15 K | 298.15 K | 303.15 K | 308.15 K | 313.15 K | 318.15 K | 323.15 K
in 1,4-dioxane | – | 0.00901 | 0.0107 | 0.0127 | 0.0151 | 0.0178 | 0.0208 | 0.0241 | 0.028
in NMP | 0.0139 | 0.0166 | 0.0195 | 0.0236 | 0.0281 | 0.0329 | 0.0389 | 0.0455 | 0.0532
in acetone | 0.0103 | 0.0123 | 0.0145 | 0.0175 | 0.0203 | 0.0241 | 0.028 | 0.0324 | 0.0371
in acetonitrile | 0.00365 | 0.00428 | 0.00504 | 0.00591 | 0.00688 | 0.008 | 0.00927 | 0.0105 | 0.0121
in cyclohexane | 3.6e-05 | 4.3e-05 | 5e-05 | 6e-05 | 7e-05 | 8.4e-05 | 9.9e-05 | 0.000118 | 0.00014
in ethanol | 0.0045 | 0.00521 | 0.00605 | 0.00706 | 0.00817 | 0.00933 | 0.0106 | 0.0122 | 0.014
in ethyl acetate | 0.00196 | 0.00245 | 0.00314 | 0.00391 | 0.00471 | 0.00569 | 0.00679 | 0.00797 | 0.0094
in isopropanol | 0.00124 | 0.00167 | 0.00223 | 0.00286 | 0.00363 | 0.00456 | 0.00559 | 0.0069 | 0.00854
in methanol | 0.00558 | 0.00635 | 0.00744 | 0.0089 | 0.0105 | 0.0123 | 0.0143 | 0.0165 | 0.0192
in n-butanol | 0.000477 | 0.000749 | 0.00111 | 0.00162 | 0.00226 | 0.00314 | 0.00432 | 0.00575 | 0.0076
in n-propanol | 0.00271 | 0.00326 | 0.00393 | 0.00468 | 0.00564 | 0.00676 | 0.00782 | 0.00901 | 0.0104
in toluene | 0.000126 | 0.000137 | 0.000149 | 0.00016 | 0.000174 | 0.000189 | 0.000206 | 0.000223 | 0.000243
